Laboratory results as given in patent publication US20220184075A1, “PHARMACEUTICAL COMPOSITION CONTAINING HDAC6 INHIBITOR AS ACTIVE INGREDIENT FOR PREVENTION OR TREATMENT OF ITCHING” (BNH RESEARCH CO.,LTD., priority 2018, published 2022).

Columns and labels:
[1] = test system: trypsin-induced itching (scratching behavior); test: Trypsin-induced scratching behavior in mice (cheek injection, bouts counted for 30 minutes); type: in vivo, Male C57BL/6 mice; settings: for number of scratching bouts compared with the only trypsin-injected mice: co-injected with 200 μg trypsin into skin of shaved right cheek, 30 minutes, 7.4 μg tubastatin A HCl or 61.4 ng M344, unpaired t-test
Method: Male C57BL/6 mice (6-week-old) were divided into groups of 3 to 5 animals, and isolated under a 12-hour light/dark cycle while being allowed to freely access water and food. Trypsin is diluted in phosphate buffered saline (PBS) to have the working concentration. […] All drug-containing stock solutions were stored in a freezer at −20 □, dissolved immediately prior to the behavioral experiment, and diluted with PBS to the final working concentration. For behavioral experiments, the right cheek of all mice was shaved, and the drug was injected after the acclimation period in an observation chamber for 2 days (2 hours/day) prior to the experiment date and 1 hour on the day of the experiment. The mice were subdued by being gently grabbed by a hand without anesthesia for drug treatment. All drugs were injected into the skin layer of the shaved right cheek at 20 μL using a 31-G insulin syringe. After returning to the observation chamber, all mice were videotaped for 30 minutes immediately after drug injection to evaluate itching behavior. For the behavioral experiment, the action of scratching the drug-injected site with a hind leg, and then placing the leg on the ground again or licking the site with a mouth was counted as 1 bout. All behavioral experiments were evaluated by testers in a blinded drug test. Statistical analysis for the experiments was performed using an unpaired t-test, and P<0.05 or P<0.01 was considered statistically significant (*: P<0.05; **: P<0.01). Data was expressed as mean±standard error (SEM).

HDAC6 = biological target: T1, HDAC6 (Homo sapiens, UniProt Q9UBN7); settings: cited from earlier work; for Selectivity: HDAC6 inhibitor selectivity, in words; for IC50: HDAC6 inhibitor
T1 sequence (Q9UBN7 1-1215): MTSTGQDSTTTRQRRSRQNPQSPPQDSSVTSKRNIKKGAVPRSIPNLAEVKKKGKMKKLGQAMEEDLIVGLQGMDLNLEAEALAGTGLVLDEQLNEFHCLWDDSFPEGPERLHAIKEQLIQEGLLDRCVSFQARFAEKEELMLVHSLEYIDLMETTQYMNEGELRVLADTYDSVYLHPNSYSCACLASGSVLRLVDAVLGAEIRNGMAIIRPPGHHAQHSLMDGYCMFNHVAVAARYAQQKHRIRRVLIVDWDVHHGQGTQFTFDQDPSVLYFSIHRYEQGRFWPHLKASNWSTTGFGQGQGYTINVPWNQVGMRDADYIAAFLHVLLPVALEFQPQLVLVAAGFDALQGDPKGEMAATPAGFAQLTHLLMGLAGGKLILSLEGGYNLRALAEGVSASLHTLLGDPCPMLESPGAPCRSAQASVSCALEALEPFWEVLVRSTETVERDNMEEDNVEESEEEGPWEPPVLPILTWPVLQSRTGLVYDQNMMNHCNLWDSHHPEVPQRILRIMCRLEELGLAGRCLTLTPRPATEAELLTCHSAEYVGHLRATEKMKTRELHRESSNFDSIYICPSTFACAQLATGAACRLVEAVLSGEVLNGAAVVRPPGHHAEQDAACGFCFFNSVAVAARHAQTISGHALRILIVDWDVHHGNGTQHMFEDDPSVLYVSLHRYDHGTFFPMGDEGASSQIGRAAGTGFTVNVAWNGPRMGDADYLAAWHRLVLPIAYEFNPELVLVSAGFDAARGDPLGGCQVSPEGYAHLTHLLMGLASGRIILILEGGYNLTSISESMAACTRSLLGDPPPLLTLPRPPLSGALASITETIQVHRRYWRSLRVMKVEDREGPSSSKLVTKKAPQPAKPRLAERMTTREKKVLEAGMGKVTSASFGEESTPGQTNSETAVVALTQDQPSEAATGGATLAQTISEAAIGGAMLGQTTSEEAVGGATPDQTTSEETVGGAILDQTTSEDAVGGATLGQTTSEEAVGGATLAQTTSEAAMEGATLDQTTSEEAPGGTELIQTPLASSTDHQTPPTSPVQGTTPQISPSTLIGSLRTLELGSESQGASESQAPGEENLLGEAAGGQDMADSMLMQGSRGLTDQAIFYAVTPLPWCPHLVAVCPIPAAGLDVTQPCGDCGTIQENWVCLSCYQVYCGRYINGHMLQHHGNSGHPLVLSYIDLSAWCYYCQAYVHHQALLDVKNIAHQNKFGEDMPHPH

For trypsin, the “scratching bouts for 30 minutes” value ([1]; 200 μg trypsin alone injected into cheek skin of normal mice, FIG. 1) was “approximately 100 bouts”.
For CN1CCc2c(c3ccccc3n2Cc2ccc(C(=O)NO)cc2)C1 [Tubastatin A, tubastatin A], the “number of scratching bouts compared with the only trypsin-injected mice” value [1] was “statistically significant smaller number of scratching bouts”.
In the case of CN(C)c1ccc(C(=O)NCCCCCCC(=O)NO)cc1 [M344], the “number of scratching bouts compared with the only trypsin-injected mice” value [1] is listed as “statistically significant smaller number of scratching bouts”, the Selectivity (HDAC6) is listed as “High” and the IC50 (HDAC6) is listed as 88 nM.
For O=C(NO)C1=CCCC1 [BRD9757], the Selectivity (HDAC6) is listed as “Very high” and the IC50 (HDAC6) is listed as 30 nM.
For O=C(NO)c1cnc(NC2(c3cccc(F)c3)CCCCC2)nc1 [ACY-775], the Selectivity (HDAC6) is given as “Very high” and the IC50 (HDAC6) is given as 7.5 nM.
